{"source": "patent US11612606B2", "about": "“8-aminoisoquinoline compounds and uses thereof” (priority 2018, dated 2023)", "note": "Counter-ions that a name gives are not always drawn.", "data": [{"biological_target": "HPK full length, T165E S171E (Homo sapiens (Human), UniProt Q92918, S171E/T165E)", "sequence (Q92918 whole entry T165E/S171E, looked up)": "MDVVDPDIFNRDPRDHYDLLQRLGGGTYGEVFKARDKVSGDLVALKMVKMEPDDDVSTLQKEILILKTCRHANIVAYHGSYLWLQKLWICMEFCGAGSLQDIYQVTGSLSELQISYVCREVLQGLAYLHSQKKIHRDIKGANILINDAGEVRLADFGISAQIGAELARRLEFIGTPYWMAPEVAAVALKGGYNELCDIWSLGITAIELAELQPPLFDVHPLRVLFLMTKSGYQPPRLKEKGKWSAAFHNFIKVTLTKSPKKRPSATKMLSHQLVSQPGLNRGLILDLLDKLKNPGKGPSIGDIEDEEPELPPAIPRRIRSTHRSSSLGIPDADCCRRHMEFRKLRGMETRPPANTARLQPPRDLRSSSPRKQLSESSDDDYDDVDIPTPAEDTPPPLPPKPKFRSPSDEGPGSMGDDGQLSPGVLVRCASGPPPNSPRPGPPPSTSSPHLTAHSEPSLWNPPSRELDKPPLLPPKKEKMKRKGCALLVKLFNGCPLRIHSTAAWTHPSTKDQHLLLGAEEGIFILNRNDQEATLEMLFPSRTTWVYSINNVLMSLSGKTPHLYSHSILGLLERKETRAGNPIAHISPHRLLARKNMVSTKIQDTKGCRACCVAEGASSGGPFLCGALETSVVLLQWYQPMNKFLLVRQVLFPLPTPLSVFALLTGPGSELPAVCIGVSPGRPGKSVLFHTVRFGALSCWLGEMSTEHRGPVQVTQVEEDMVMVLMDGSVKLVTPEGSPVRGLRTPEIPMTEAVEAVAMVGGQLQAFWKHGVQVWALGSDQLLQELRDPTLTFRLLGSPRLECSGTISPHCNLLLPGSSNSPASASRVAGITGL", "experiment": "HPK1-FL HTRF enzymatic assay (\"HTRF\")", "format": "biochemical", "conditions": "ATP 1 mM, read-out: HPK1 Ki", "procedure,_shortened": "(§1)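 HTRF detection of phosphorylated biotin-SLP-76 used Eu-anti-pSLP76 antibody and SA-XL665, read after 60 min. The kinase reaction ran 60 min at […], following a 30-min compound preincubation with the full-length enzyme.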", "units": {"Ki": "nM"}, "values": [{"compound": "Cc1c(-c2cc3cc(NC(=O)OC4CN(C5CC5)C4)ncc3c(N)c2F)cnc2c1NCCO2", "note": "[Compound 540, 1-Cyclopropylazetidin-3-yl (8-amino-7-fluoro-6-(8-methyl-2,3-dihydro-1H-pyrido[2,3-b][1,4]oxazin-7-yl)isoquinolin-3-yl)carbamate]", "Ki": 0.021}, {"compound": "Cc1c(-c2cc3cc(NC(=O)O[C@H]4C[C@@H](F)C4)ncc3c(N)c2F)cnc2c1NCCO2", "note": "[Compound 541a, (1s,3s)-3-Fluorocyclobutyl (8-amino-7-fluoro-6-(8-methyl-2,3-dihydro-1H-pyrido[2,3-b][1,4]oxazin-7-yl)isoquinolin-3-yl)carbamate hydrochloride]", "Ki": 0.014}, {"compound": "Cc1c(-c2cc3cc(NC(=O)O[C@@H]4CC[C@@H]4O)ncc3c(N)c2F)cnc2c1NCCO2", "note": "[Compound 542b, (1R,2S)-2-Hydroxycyclobutyl (8-amino-7-fluoro-6-(8-methyl-2,3-dihydro-1H-pyrido[2,3-b][1,4]oxazin-7-yl)isoquinolin-3-yl)carbamate]", "Ki": 0.078}, {"compound": "Cc1c(-c2cc3cc(NC(=O)O[C@H]4[C@@H]5COC[C@@H]54)ncc3c(N)c2F)cnc2c1NCCO2", "note": "[Compound 543a, (1R,5S,6s)-3-oxabicyclo[3.1.0]hexan-6-yl (8-amino-7-fluoro-6-(8-methyl-2,3-dihydro-1H-pyrido[2,3-b][1,4]oxazin-7-yl)isoquinolin-3-yl)carbamate]", "Ki": "< 0.013"}, {"compound": "Cc1c(-c2cc3cc(NC(=O)O[C@@H]4[C@@H]5COC[C@@H]54)ncc3c(N)c2F)cnc2c1NCCO2", "note": "[Compound 543b, (1R,5S,6r)-3-oxabicyclo[3.1.0]hexan-6-yl (8-amino-7-fluoro-6-(8-methyl-2,3-dihydro-1H-pyrido[2,3-b][1,4]oxazin-7-yl)isoquinolin-3-yl)carbamate]", "Ki": 0.083}, {"compound": "Cc1c(-c2cc3cc(NC(=O)O[C@@H]4CCOC4)ncc3c(N)c2F)cnc2c1[C@H](O)CC2", "note": "[Compound 548b, (R)-tetrahydrofuran-3-yl (8-amino-7-fluoro-6-((R)-5-hydroxy-4-methyl-6,7-dihydro-5H-cyclopenta[b]pyridin-3-yl)isoquinolin-3-yl)carbamate]", "Ki": 93}, {"compound": "Cc1c(-c2cc3cc(NC(=O)O[C@H]4C[C@@H](C(C)(C)C#N)C4)ncc3c(N)c2F)cnc2c1NCCO2", "note": "[Compound 549a, (1s,3s)-3-(2-Cyanopropan-2-yl)cyclobutyl (8-amino-7-fluoro-6-(8-methyl-2,3-dihydro-1H-pyrido[2,3-b][1,4]oxazin-7-yl)isoquinolin-3-yl)carbamate]", "Ki": "< 0.013"}, {"compound": "Cc1c(-c2cc3cc(NC(=O)O[C@H]4C[C@H](C(C)(C)C#N)C4)ncc3c(N)c2F)cnc2c1NCCO2", "note": "[Compound 549b, (1r,3r)-3-(2-Cyanopropan-2-yl)cyclobutyl (8-amino-7-fluoro-6-(8-methyl-2,3-dihydro-1H-pyrido[2,3-b][1,4]oxazin-7-yl)isoquinolin-3-yl)carbamate]", "Ki": "< 0.013"}, {"compound": "Cc1c(-c2cc3cc(NC(=O)OC4CC(O)(C5CC5)C4)ncc3c(N)c2F)cnc2c1NCCO2", "note": "(stereo not drawn) [Compound 551a, (3-Cyclopropyl-3-hydroxy-cyclobutyl) N-[8-amino-7-fluoro-6-(8-methyl-2,3-dihydro-1H-pyrido[2,3-b][1,4]oxazin-7-yl)-3-isoquinolyl]carbamate]", "Ki": "< 0.013"}, {"compound": "Cc1c(-c2cc3cc(NC(=O)OC4CN(S(C)(=O)=O)C4)ncc3c(N)c2F)cnc2c1NCCO2", "note": "[Compound 552, 1-(Methylsulfonyl)azetidin-3-yl (8-amino-7-fluoro-6-(8-methyl-2,3-dihydro-1H-pyrido[2,3-b][1,4]oxazin-7-yl)isoquinolin-3-yl)carbamate]", "Ki": 0.014}, {"compound": "Cc1c(-c2cc3cc(NC(=O)O[C@H]4C[C@@H](O)C4)ncc3c(N)c2F)cnc2c1NCCC2", "note": "[Compound 553a, (1s,3s)-3-hydroxycyclobutyl (8-amino-7-fluoro-6-(4-methyl-5,6,7,8-tetrahydro-1,5-naphthyridin-3-yl)isoquinolin-3-yl)carbamate]", "Ki": "< 0.013"}, {"compound": "Cc1c(-c2cc3cc(NC(=O)O[C@]4(C)C[C@H](O)C4)ncc3c(N)c2F)cnc2c1NCCO2", "note": "[Compound 554a, (1s,3s)-3-Hydroxy-1-methylcyclobutyl (8-amino-7-fluoro-6-(8-methyl-2,3-dihydro-1H-pyrido[2,3-b][1,4]oxazin-7-yl)isoquinolin-3-yl)carbamate]", "Ki": 0.253}, {"compound": "Cc1c(-c2cc(N)c3cnc(NC(=O)O[C@H]4C[C@@H](C#N)C4)cc3c2)cnc2c1NCCO2", "note": "[Compound 557a, (1s,3s)-3-Cyanocyclobutyl (8-amino-6-(8-methyl-2,3-dihydro-1H-pyrido[2,3-b][1,4]oxazin-7-yl)isoquinolin-3-yl)carbamate hydrochloride]", "Ki": "< 0.013"}, {"compound": "Cc1c(-c2cc3cc(NC(=O)O[C@H]4CC[C@@H]4C)ncc3c(N)c2F)cnc2c1NCCO2", "note": "[Compound 559b, [(1S,2S)-2-methylcyclobutyl]N-[8-amino-7-fluoro-6-(8-methyl-2,3-dihydro-1H-pyrido[2,3-b][1,4]oxazin-7-yl)-3-isoquinolyl]carbamate]", "Ki": 0.14}, {"compound": "Cc1c(-c2cc3cc(NC(=O)O[C@H]4CC[C@H]4C)ncc3c(N)c2F)cnc2c1NCCO2", "note": "[Compound 559d, [(1S,2R)-2-methylcyclobutyl]N-[8-amino-7-fluoro-6-(8-methyl-2,3-dihydro-1H-pyrido[2,3-b][1,4]oxazin-7-yl)-3-isoquinolyl]carbamate]", "Ki": "< 0.013"}, {"compound": "Cc1c(-c2cc3cc(NC(=O)OC4CC(O)C4)ncc3c(N)c2F)cnc2c1NC[C@H](C)C2", "note": "(stereo partly drawn) [Compound 560b, (1s,3s)-3-Hydroxycyclobutyl (8-amino-6-((R)-4,7-dimethyl-5,6,7,8-tetrahydro-1,5-naphthyridin-3-yl)-7-fluoroisoquinolin-3-yl)carbamate]", "Ki": 0.32}]}, {"biological_target": "HPK full length, T165E S171E (Homo sapiens (Human), UniProt Q92918, S171E/T165E)", "experiment": "HPK1-FL HTRF enzymatic assay (\"HTRF\")", "format": "biochemical", "conditions": "HPK1 Ki, ATP 1 mM", "procedure,_shortened": "as §1", "units": {"Ki": "nM"}, "values": [{"compound": "Cc1c(-c2cc3cc(NC(=O)O[C@H]4CC[C@H]4O)ncc3c(N)c2F)cnc2c1NCCO2", "note": "[Compound 542a, (1S,2R)-2-Hydroxycyclobutyl (8-amino-7-fluoro-6-(8-methyl-2,3-dihydro-1H-pyrido[2,3-b][1,4]oxazin-7-yl)isoquinolin-3-yl)carbamate]", "Ki": 0.33}, {"compound": "Cc1c(-c2cc3cc(NC(=O)O[C@H]4CC[C@@H]4O)ncc3c(N)c2F)cnc2c1NCCO2", "note": "[Compound 542c, (1S,2S)-2-Hydroxycyclobutyl (8-amino-7-fluoro-6-(8-methyl-2,3-dihydro-1H-pyrido[2,3-b][1,4]oxazin-7-yl)isoquinolin-3-yl)carbamate hydrochloride]", "Ki": 0.021}, {"compound": "Cc1c(-c2cc3cc(NC(=O)O[C@@H]4CC[C@H]4O)ncc3c(N)c2F)cnc2c1NCCO2", "note": "[Compound 542d, (1R,2R)-2-Hydroxycyclobutyl (8-amino-7-fluoro-6-(8-methyl-2,3-dihydro-1H-pyrido[2,3-b][1,4]oxazin-7-yl)isoquinolin-3-yl)carbamate hydrochloride]", "Ki": 0.014}, {"compound": "Cc1c(-c2cc3cc(NC(=O)O[C@@H]4CCOC4)ncc3c(N)c2F)cnc2c1[C@@H](O)CC2", "note": "[Compound 548a, (R)-tetrahydrofuran-3-yl (8-amino-7-fluoro-6-((S)-5-hydroxy-4-methyl-6,7-dihydro-5H-cyclopenta[b]pyridin-3-yl)isoquinolin-3-yl)carbamate]", "Ki": 1.7}, {"compound": "Cc1c(-c2cc3cc(NC(=O)O[C@H]4C[C@@H](N5CCOCC5)C4)ncc3c(N)c2F)cnc2c1NCCO2", "note": "[Compound 550b, (1s,3s)-3-Morpholinocyclobutyl (8-amino-7-fluoro-6-(8-methyl-2,3-dihydro-1H-pyrido[2,3-b][1,4]oxazin-7-yl)isoquinolin-3-yl)carbamate]", "Ki": 0.054}]}]}
